Reference: patent US20260285853A1, “COMPOUNDS AND METHODS FOR MODULATING SPLICING” (REMIX THERAPEUTICS INC., priority 2023, published 2026)

How the values were obtained:
Format in all cases: cell-based
HTT mRNA [1] = experiment: Splicing RT-qPCR assay (THP), Table 2A; conditions: Table 2A, THP; for AC50: HTT alternative junction (AJ) mRNA, read-out: HTT AJ (AC50, increase in alternative junction mRNA); for IC50: HTT canonical junction (CJ) mRNA, read-out: HTT CJ (IC50, decrease in canonical junction mRNA)
MYB mRNA [2] = experiment: Splicing RT-qPCR assay (THP), Table 2A; conditions: Table 2A, THP; for AC50: MYB alternative junction (AJ) mRNA, read-out: MYB AJ (AC50, increase in alternative junction mRNA); for IC50: MYB canonical junction (CJ) mRNA, read-out: MYB CJ (IC50, decrease in canonical junction mRNA)
HTT mRNA [3] = experiment: Gene panel canonical junction qPCR assay, decrease in CJ mRNA, Table 3; conditions: decrease in CJ mRNA levels, canonical junction qPCR, gene panel
Procedure, shortened: (§1)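 Eleven-point dose responses from 10 uM final, 24 h, DMSO ≤0.25%, in A673 or K562 cells. Relative quantification by 2^(−ΔΔCt) against housekeeper and vehicle was converted to percent response over fixed ΔCt windows and fitted to yield IC50.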

MYB mRNA [4] = experiment: as above; conditions: decrease in CJ mRNA levels, canonical junction qPCR, gene panel
Procedure, shortened: as §1

[5] = system: SH-SY5Y (human neuroblastoma) cells; experiment: Cell viability, Cell Titer Glo 2.0 assay; conditions: read-out: Viability SHSY5Y.3 GI50
Procedure, shortened: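 Following a 72 h incubation (37 °C, 5% CO2, 0.1% DMSO final), compound toxicity toward SH-SY5Y cells was quantified by CellTiter-Glo 2.0.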

Structure (SMILES)	AC50 (HTT mRNA [1]) [µM]	IC50 (HTT mRNA [1]) [µM]	AC50 (MYB mRNA [2]) [µM]	IC50 (MYB mRNA [2]) [µM]	IC50 (HTT mRNA [3]) [µM]	IC50 (MYB mRNA [4]) [µM]	GI50 [5] [µM]
Cc1cn2cc(NC(=O)c3ccc(N4CCC(NC5CC5)CC4)c4cn(C)nc34)nc2c(CN2CCCS2(=O)=O)n1 [Compound 774, 4-[4-(cyclopropylamino)-1-piperidyl]-N-[8-[(1,1-dioxo-1,2-thiazolidin-2-yl)methyl]-6-methyl-imidazo[1,2-a]pyrazin-2-yl]-2-methyl-indazole-7-carboxamide]	> 10	> 10	> 10	> 10	> 10	> 10	> 10
Cc1cn2cc(NC(=O)c3ccc(N4CCC(NC5CC5)CC4)c4cn(C)nc34)nc2c(Cn2cnc(C(N)=O)c2)n1 [Compound 775, N-(8-((4-carbamoyl-1H-imidazol-1-yl)methyl)-6-methylimidazo[1,2-a]pyrazin-2-yl)-4-(4-(cyclopropylamino)piperidin-1-yl)-2-methyl-2H-indazole-7-carboxamide 2,2,2-trifluoroacetate]	> 10	> 10	> 10	> 10	> 10	> 10	> 10
Cc1cn2cc(NC(=O)c3ccc(N4CCC(NC5CC5)CC4)c4cn(C)nc34)nc2c(CCN(C)C)n1 [Compound 776]	> 10	> 10	> 10	> 10	> 10	> 10	1 to 10
Cc1cn2cc(NC(=O)c3ccc(N4CCC(N(C)C5CC5)CC4)c4cn(C)nc34)nc2c(CNS(C)(=O)=O)n1 [Compound 777]	1 to 10	1 to 10	1 to 10	1 to 10	1 to 10	1 to 10	1 to 10
Cc1cn2cc(NC(=O)c3ccc(N4CCC(NC5CC5)CC4)c4cn(C)nc34)nc2c(CCNS(C)(=O)=O)n1 [Compound 778]	> 10	> 10	> 10	> 10	> 10	> 10	> 10
CC(=O)NCc1cc(NC(=O)c2ccc(N3CCC(NC4CC4)CC3)c3cn(C)nc23)cc2cn(C)nc12 [Compound 779]	> 10	> 10	0.1 to 1	0.1 to 1	> 10	0.1 to 1	> 10
Cc1nc2c(C(=O)Nc3cc(F)c4nn(C)cc4c3)ccc(N3C[C@H](C)N[C@@H](C)C3)c2s1 [Compound 780]	0.1 to 1	0.1 to 1	< 0.1	< 0.1	0.1 to 1	< 0.1	< 0.1
Cc1cn2cc(NC(=O)c3ccc(N4CCC(NC5CC5)CC4)c4cn(C)nc34)nc2c(Cc2cnc(Cl)s2)n1 [Compound 781]	> 10	> 10	> 10	> 10	> 10	> 10	1 to 10
COc1nc2c(C(=O)Nc3cn4c(C)nc(C)cc4n3)ccc(N3C[C@H](C)N[C@@H](C)C3)c2s1 [Compound 782, N-(5,7-dimethylimidazo[1,2-c]pyrimidin-2-yl)-7-[(3S,5S)-3,5-dimethylpiperazin-1-yl]-2-methoxy-1,3-benzothiazole-4-carboxamide]	> 10	> 10	0.1 to 1	0.1 to 1	> 10	0.1 to 1	1 to 10
COc1nc2c(C(=O)Nc3cc(CO)c4nn(C)cc4c3)ccc(N3C[C@H](C)N[C@@H](C)C3)c2s1 [Compound 783, 7-((3S,5S)-3,5-dimethylpiperazin-1-yl)-N-(7-(hydroxymethyl)-2-methyl-2H-indazol-5-yl)-2-methoxybenzo[d]thiazole-4-carboxamide]	1 to 10	> 10	< 0.1	< 0.1	> 10	< 0.1	0.1 to 1
COc1nc2c(C(=O)Nc3cc(OC)c4nn(C)cc4c3)ccc(N3C[C@H](C)N[C@@H](C)C3)c2s1 [Compound 784, 7-((3S,5S)-3,5-dimethylpiperazin-1-yl)-2-methoxy-N-(7-methoxy-2-methyl-2H-indazol-5-yl)benzo[d]thiazole-4-carboxamide]	0.1 to 1	0.1 to 1	< 0.1	< 0.1	0.1 to 1	< 0.1	< 0.1
COc1nc2c(C(=O)Nc3cc(Cl)c4nn(C)cc4c3)ccc(N3C[C@H](C)N[C@@H](C)C3)c2s1 [Compound 785]	0.1 to 1	0.1 to 1	< 0.1	< 0.1	0.1 to 1	< 0.1	< 0.1
COc1nc2c(C(=O)Nc3cc4cn(C)nc4c(F)c3OC)ccc(N3C[C@H](C)N[C@@H](C)C3)c2s1 [Compound 786]	1 to 10	1 to 10	0.1 to 1	0.1 to 1	1 to 10	0.1 to 1	1 to 10
COc1nc2c(C(=O)Nc3cc4cc(C)nn4cc3OC)ccc(N3C[C@H](C)N[C@@H](C)C3)c2s1 [Compound 787, 7-((3S,5S)-3,5-dimethylpiperazin-1-yl)-2-methoxy-N-(6-methoxy-2-methylpyrazolo[1,5-a]pyridin-5-yl)benzo[d]thiazole-4-carboxamide 2,2,2-trifluoroacetate]	> 10	> 10	> 10	1 to 10	> 10	1 to 10	1 to 10
COc1nc2c(C(=O)Nc3cc(F)c4nn(C)cc4c3)ccc(N3C[C@@H](C)NC4(CC4)C3)c2s1 [Compound 788]	> 10	> 10	< 0.1	0.1 to 1	> 10	0.1 to 1	1 to 10
COc1nc2c(C(=O)Nc3cc(F)c4nn(C)cc4c3)ccc(N3CCN(C)CC3)c2s1 [Compound 789]	0.1 to 1	0.1 to 1	< 0.1	< 0.1	0.1 to 1	< 0.1	0.1 to 1
COc1cc2c(N3C[C@H](C)N[C@@H](C)C3)ccc(C(=O)Nc3cc(F)c4nn(C)cc4c3)c2o1 [Compound 790]	0.1 to 1	1 to 10	< 0.1	< 0.1	1 to 10	< 0.1	0.1 to 1
Cc1cn2cc(NC(=O)c3ccc(N4CCC(NC5CC5)CC4)c4cn(C)nc34)nc2c(CNC(C)C(F)(F)F)n1 (stereo not shown) [Compound 791, 4-[4-(cyclopropylamino)-1-piperidyl]-2-methyl-N-[6-methyl-8-[[(2,2,2-trifluoro-1-methyl-ethyl)amino]methyl]imidazo[1,2-a]pyrazin-2-yl]indazole-7-carboxamide]	> 10	> 10	> 10	> 10	> 10	> 10	1 to 10
Cc1cn2cc(NC(=O)c3ccc(N(C)C)c4cn(C)nc34)nc2c(CNS(C)(=O)=O)n1 [Compound 792]	1 to 10	1 to 10	1 to 10	1 to 10	1 to 10	1 to 10	1 to 10
